The values that follow come from patent publication US12275731B2, “Azaindole inhibitors of wild-type and mutant forms of LRRK2” (DANA-FARBER CANCER INSTITUTE, INC., priority 2018, dated 2025).

What all share (assay): KinomeScan profiling
Common to all, as to format: binding

Assay [1] concerns the target CDK3 (Homo sapiens, UniProt Q00526). The conditions noted are these: CDK3, 1 μM; read-out: % control. A digest of the protocol: (§1)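 1 μM cpd in DMSO; 468-kinase panel; readout RLU. % ctrl = (cpd − pos ctrl)/(neg ctrl − pos ctrl) ×100. Pos ctrl = 0%, DMSO = 100%. Hit cut-off <35%.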
Assay [2] deals with T1, DCAMKL3 (Homo sapiens, UniProt Q9C098).
T1 sequence (Q9C098 1-648): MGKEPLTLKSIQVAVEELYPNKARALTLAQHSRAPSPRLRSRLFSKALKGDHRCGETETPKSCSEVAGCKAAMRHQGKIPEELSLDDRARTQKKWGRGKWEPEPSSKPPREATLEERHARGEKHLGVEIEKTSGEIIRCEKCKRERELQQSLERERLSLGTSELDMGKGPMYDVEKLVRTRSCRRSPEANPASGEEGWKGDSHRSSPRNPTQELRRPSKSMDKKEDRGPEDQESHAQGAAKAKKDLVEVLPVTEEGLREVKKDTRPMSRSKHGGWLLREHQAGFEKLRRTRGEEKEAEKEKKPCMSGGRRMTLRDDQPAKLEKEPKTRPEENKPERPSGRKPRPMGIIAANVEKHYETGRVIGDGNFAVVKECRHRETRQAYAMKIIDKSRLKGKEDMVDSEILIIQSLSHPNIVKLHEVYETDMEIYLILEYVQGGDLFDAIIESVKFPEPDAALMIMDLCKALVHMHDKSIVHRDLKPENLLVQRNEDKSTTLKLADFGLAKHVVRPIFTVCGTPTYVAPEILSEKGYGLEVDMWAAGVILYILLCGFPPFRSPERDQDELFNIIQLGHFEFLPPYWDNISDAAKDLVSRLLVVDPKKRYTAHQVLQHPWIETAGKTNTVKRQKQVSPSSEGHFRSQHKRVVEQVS
The conditions noted are these: DCAMKL3, 1 μM; read-out: % control. A digest of the protocol:
as §1

Assay [3] deals with WNK2 (Homo sapiens, UniProt Q9Y3S1). The conditions noted are these: WNK2, 1 μM; read-out: % control. A digest of the protocol:
as §1

In assay [4] the target is T2, NEK2 (Homo sapiens, UniProt P51955).
T2 sequence (P51955 1-445): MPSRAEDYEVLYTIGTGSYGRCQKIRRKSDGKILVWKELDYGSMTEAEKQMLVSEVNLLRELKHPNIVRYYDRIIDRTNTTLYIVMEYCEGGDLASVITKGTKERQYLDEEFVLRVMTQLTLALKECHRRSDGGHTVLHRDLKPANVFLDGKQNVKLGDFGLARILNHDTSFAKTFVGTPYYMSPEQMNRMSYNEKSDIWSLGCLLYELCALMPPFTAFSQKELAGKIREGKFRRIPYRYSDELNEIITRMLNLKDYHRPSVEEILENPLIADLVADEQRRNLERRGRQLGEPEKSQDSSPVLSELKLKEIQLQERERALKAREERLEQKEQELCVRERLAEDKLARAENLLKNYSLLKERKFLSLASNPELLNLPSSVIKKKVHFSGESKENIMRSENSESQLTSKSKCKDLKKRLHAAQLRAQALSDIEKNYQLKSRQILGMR
The note with it: NEK2, 1 μM; read-out: % control. A digest of the protocol: as §1

The target in assay [5] is T3, ABL1(F317I)-nonphosphorylated (Homo sapiens, UniProt P00519, F317I).
T3 construct: purchased KinomeScan®
The conditions noted are these: read-out: % control. A digest of the protocol:
as §1

In assay [6] the target is T4, PIM1 (Homo sapiens, UniProt P11309).
T4 construct: purchased KinomeScan® (panel service)
The conditions noted are these: PIM1, 1 μM; read-out: % control. A digest of the protocol:
as §1

For assay [7], the target named is T5, ABL1(H396P)-phosphorylated (Homo sapiens, UniProt P00519, H396P).
T5 construct: purchased KinomeScan®
The conditions noted are these: read-out: % control. A digest of the protocol:
as §1

Assay [8] deals with T6, IKK-alpha (Homo sapiens, UniProt O15111).
T6 sequence (O15111 1-745): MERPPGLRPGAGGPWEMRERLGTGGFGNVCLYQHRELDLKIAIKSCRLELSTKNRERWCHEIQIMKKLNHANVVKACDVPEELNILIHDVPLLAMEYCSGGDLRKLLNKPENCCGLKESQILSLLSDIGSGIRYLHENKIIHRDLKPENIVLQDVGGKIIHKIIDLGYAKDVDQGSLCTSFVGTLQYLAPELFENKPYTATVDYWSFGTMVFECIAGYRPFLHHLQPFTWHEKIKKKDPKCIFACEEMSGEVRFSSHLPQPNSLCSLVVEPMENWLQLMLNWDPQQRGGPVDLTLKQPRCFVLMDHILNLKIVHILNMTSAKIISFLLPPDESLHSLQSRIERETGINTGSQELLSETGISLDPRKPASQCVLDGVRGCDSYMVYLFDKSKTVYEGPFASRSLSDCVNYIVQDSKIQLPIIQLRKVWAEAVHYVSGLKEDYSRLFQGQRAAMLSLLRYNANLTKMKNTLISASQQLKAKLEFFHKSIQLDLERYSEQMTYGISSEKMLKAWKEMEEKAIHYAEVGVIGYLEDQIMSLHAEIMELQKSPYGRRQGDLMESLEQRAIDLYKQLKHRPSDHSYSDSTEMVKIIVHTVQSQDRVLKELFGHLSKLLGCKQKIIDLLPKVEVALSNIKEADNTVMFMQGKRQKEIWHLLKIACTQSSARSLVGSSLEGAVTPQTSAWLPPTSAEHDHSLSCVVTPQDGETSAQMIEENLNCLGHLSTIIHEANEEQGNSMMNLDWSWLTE
The conditions noted are these: read-out: % control. A digest of the protocol: as §1

Chain of WNK2 (Q9Y3S1 whole entry): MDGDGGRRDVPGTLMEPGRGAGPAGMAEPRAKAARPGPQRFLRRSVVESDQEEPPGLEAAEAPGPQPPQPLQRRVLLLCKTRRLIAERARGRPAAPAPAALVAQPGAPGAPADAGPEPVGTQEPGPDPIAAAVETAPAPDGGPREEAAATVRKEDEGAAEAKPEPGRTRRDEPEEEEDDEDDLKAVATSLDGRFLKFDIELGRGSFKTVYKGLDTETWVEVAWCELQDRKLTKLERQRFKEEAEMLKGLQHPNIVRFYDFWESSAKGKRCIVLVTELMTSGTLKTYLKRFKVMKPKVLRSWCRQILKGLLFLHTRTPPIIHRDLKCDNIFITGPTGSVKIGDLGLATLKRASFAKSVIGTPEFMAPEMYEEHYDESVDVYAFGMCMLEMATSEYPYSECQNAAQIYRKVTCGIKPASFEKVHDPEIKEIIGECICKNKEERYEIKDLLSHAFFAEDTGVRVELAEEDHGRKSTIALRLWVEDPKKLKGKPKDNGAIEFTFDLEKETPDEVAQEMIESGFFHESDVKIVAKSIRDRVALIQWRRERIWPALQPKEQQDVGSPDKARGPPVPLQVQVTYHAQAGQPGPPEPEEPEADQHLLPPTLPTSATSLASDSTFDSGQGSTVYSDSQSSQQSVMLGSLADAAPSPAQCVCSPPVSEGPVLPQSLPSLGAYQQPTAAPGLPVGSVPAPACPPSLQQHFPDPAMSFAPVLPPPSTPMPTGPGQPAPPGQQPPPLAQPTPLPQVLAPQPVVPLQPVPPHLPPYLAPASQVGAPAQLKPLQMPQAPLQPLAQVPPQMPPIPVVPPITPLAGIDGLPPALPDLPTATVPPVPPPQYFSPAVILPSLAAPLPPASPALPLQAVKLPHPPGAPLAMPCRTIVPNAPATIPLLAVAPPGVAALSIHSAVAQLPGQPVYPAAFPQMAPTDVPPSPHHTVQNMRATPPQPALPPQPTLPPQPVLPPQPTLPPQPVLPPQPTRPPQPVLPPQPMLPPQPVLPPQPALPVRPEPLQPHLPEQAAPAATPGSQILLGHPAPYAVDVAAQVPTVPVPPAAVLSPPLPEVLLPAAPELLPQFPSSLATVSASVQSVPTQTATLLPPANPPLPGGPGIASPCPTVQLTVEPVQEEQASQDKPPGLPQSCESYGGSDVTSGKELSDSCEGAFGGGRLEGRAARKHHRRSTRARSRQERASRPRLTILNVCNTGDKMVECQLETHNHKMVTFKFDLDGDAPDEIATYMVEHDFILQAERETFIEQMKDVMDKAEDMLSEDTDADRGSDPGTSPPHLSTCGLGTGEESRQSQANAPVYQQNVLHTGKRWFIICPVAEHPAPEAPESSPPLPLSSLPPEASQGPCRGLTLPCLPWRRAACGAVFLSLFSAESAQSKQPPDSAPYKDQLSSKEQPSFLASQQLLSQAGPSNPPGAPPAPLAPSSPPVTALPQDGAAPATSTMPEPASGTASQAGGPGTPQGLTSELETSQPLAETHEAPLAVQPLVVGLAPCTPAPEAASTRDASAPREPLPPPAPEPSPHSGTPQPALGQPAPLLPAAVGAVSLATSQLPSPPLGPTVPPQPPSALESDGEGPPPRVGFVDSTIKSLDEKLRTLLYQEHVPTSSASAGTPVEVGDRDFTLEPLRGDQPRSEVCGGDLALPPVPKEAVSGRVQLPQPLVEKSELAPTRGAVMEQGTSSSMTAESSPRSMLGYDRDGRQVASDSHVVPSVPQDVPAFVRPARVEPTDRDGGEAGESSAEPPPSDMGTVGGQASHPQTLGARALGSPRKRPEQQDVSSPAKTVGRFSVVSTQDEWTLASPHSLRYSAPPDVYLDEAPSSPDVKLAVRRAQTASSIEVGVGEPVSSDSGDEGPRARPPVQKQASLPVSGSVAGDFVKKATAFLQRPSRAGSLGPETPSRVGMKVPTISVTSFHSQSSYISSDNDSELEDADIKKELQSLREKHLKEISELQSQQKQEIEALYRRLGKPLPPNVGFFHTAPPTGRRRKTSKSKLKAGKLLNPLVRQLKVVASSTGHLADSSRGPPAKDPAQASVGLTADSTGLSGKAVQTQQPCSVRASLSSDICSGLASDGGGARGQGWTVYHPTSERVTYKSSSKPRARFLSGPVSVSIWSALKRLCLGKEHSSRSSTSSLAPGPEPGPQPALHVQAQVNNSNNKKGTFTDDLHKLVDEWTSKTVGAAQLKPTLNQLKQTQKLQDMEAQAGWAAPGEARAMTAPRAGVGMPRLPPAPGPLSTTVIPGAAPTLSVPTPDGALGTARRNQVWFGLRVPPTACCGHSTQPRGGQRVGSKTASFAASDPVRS
T4 sequence (P11309 whole entry): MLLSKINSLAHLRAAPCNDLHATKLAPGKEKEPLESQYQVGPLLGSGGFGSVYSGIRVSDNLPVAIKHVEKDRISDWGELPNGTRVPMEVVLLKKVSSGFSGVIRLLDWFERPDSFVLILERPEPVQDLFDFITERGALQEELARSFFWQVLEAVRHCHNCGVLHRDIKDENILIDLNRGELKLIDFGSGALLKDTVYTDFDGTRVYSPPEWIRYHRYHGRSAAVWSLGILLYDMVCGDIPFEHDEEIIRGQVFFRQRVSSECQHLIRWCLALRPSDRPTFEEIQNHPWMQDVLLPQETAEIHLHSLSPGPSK
Chain of CDK3 (Q00526 whole entry): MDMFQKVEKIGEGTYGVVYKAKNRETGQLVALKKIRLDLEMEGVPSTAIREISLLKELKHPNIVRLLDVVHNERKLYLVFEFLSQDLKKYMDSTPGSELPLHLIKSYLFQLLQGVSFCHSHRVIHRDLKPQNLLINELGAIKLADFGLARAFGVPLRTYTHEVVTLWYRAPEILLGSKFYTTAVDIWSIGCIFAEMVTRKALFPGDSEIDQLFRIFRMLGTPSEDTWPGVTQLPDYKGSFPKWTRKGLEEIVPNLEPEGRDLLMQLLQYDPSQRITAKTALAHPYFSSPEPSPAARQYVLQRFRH

On to `CNc1c(-c2cnn([C@H]3CCN(C(C)=O)C[C@@H]3F)c2)cnc2[nH]cc(Cl)c12` [Compound 77, 1-((3S,4S)-4-(4-(3-chloro-4-(methylamino)-1H-pyrrolo[2,3-b]pyridin-5-yl)-1H-pyrazol-1-yl)-3-fluoropiperidin-1-yl)ethan-1-one], for which the remaining binding at 1 µM in assay [1] is 95%; in assay [2], 95%; in assay [3], 92%; in assay [4], 100%; in assay [5], 100%; in assay [6], 95%. Moreover, the figures for the remaining binding at 1 µM in assay [7] and in assay [8] were 81% and 17%, respectively.

`CNc1c(-c2ccc(C(=O)N3CCC(N4CCOCC4)CC3)cc2)cnc2[nH]cc(Cl)c12` [Compound 96, (4-(3-chloro-4-(methylamino)-1H-pyrrolo[2,3-b]pyridin-5-yl)phenyl)(4-morpholinopiperidin-1-yl)methanone]: the remaining binding at 1 µM amounted to 89% in assay [1]; 99% in assay [2]; 100% in assay [3]; 100% in assay [4]; 100% in assay [5]; 100% in assay [6]. The remaining binding at 1 µM in assay [7] was determined as 100%; in assay [8], 14%.

`O=C(c1ccc(-c2cnc3[nH]cc(Cl)c3c2NC2CCCC2)cc1)N1CCC(N2CCOCC2)CC1` [Compound 101, (4-(3-chloro-4-(cyclopentylamino)-1H-pyrrolo[2,3-b]pyridin-5-yl)phenyl)(4-morpholinopiperidin-1-yl)methanone]: the remaining binding at 1 µM in assay [1] worked out at 97%; in assay [2], 84%; in assay [3] it was 100%; in assay [4], 100%; in assay [5] it was 100%; in assay [6], 95%. The values for the remaining binding at 1 µM in assay [7] and in assay [8] were 100% and 49%, respectively.
